Ki data for four molecules are collected here from BindingDB's records for PubMed 10087018 (University of Rochester, 1999).

Assay [1] addresses Mu-type opioid receptor (Bos taurus, UniProt P79350).
Assay [2] addresses Opioid receptor delta 1 (Bos taurus, UniProt F1N083).

The structures appear in SMILES notation.

Chain of Mu-type opioid receptor (P79350 whole entry): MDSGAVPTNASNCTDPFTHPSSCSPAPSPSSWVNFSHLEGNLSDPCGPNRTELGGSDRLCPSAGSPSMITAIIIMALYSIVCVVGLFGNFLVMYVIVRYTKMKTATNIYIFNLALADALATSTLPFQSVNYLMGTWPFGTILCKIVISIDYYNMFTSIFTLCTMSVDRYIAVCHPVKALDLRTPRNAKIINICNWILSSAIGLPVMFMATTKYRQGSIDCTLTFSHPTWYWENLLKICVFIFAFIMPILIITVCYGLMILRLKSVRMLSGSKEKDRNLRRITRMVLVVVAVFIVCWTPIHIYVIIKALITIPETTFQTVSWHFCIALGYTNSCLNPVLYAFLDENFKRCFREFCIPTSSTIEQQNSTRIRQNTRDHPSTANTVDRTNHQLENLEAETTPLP
Chain of Opioid receptor delta 1 (F1N083 whole entry): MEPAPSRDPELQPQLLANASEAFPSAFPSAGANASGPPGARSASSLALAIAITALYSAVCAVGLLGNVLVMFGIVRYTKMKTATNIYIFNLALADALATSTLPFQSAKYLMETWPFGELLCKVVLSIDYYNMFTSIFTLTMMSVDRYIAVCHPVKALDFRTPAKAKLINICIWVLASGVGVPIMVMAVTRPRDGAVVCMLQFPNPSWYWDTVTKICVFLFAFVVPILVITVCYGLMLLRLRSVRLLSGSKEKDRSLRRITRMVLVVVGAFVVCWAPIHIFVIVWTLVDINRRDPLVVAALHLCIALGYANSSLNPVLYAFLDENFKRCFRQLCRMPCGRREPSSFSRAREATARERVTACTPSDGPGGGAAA

By Ki is commonly meant the dissociation constant of the complex between target and ligand, obtained from inhibition or displacement. Low readings indicate tighter binding, high ones weaker binding. For the molecule `COc1ccc2c3c1O[C@H]1C(=O)CCC4(NC(=O)/C=C\c5ccc(Cl)cc5)C(C2)N(C)CCC314` (stereo partly specified) [CAM], the values for the inhibition constant Ki in assay [1] and in assay [2] were 0.12 nM and 0.75 nM, respectively.
In the same order, the values of `COc1ccc2c3c1O[C@H]1C(=O)CCC4(NC(=O)/C=C\c5ccc(Cl)cc5)C(C2)N(CC2CC2)CCC314` (stereo partly specified) [MC-CAM] are 1.4 nM and 12 nM.
In turn, `COc1ccc2c3c1O[C@H]1C(=O)CCC4(NC(=O)/C=C\c5ccc([N+](=O)[O-])cc5)C(C2)N(C)CCC314` (stereo partly specified) [CACO] showed an inhibition constant (Ki) in assay [1] of 0.46 nM. In other words, the sub-nanomolar range.
Turning to `COc1ccc2c3c1O[C@H]1C(=O)CCC4(NC(=O)/C=C\c5ccc([N+](=O)[O-])cc5)C(C2)N(CC2CC2)CCC314` (stereo partly specified) [N-CPM-CACO], in assay [2], the Ki was found to be 16 nM.
